Data as given in US7998972B2, “1H-imidazo[4,5-c]quinoline derivatives in the treatment of protein kinase dependent diseases” (Novartis AG, priority 2002, dated 2011).
Structures can show the parent of a compound that is named as a salt.

Assays:
[1] = biological target: T1, c-Met (Homo sapiens, UniProt P08581); experiment: Inhibition of c-Met kinase (33P-ATP filter assay); type: biochemical; settings: GST-c-Met cytoplasmic domain, poly(EY) substrate; read-out: IC50 range class, inhibition of c-Met
T1 construct: c-Met cytoplasmic domain (amino acids 969 to C-terminus); made in house; host or cells: baculovirus / Sf9 cells
Source text: Compounds of the formula I, for example, are able to inhibit c-Met kinase as mentioned already in the introduction. Using the sequence disclosed by Chan et al. (see Chan, A M-L, King H W S, Tempest P R, Deakin E A, Cooper C S, Brookes P. Primary structure of the met protein tyrosine kinase domain. Oncogene 1987; 12:229-233), a construct with this sequence, after hooking to a GST tag, was cloned into baculovirus and expressed in Sf9 cells. After partial purification by affinity chromatography on GST agarose resulting in a >90% pure preparation (SDS-PAGE), the kinase activity of this construct is used for inhibition assays using the compounds of formula I. The quality of the purified kinase preparations is highly reproducible: 9 batches of c-Met gives an average specific activity of 32.3±5.7 nmol/mg·min.
For inhibition studies, the following experimental protocol is used:
In vitro protein kinase assays are performed in 96-well plates. The amount of enzyme used in kinase assays and the incubation time for the kinase reaction are adjusted so that maximally 25% (in routine experiments <10%) of the substrate ATP are consumed.
Test compounds of the formula I are first dissolved in DMSO at a concentration of 1-10 mM (stock solution) and then further diluted with water/3% DMSO as required so that the final DMSO concentration in the assay is 1%.
The assay components are mixed in the following order: • 10 μl 3×compound (in 3% DMSO) • 10 μl 3×assay mix (MgCl2/MnCl2/ATP/^33P-ATP/poly(EY)) • 10 μl 3×enzyme dilution
Assays are incubated for 15 min (in special cases up to 60 min) at ambient temperature, reactions terminated by addition of 10 μl 0.25 M EDTA pH 7, then 20 μl transferred to a Millipore Immobilon^P membrane (previously soaked for 5 min with methanol, rinsed with water, then soaked for 5 min with 0.5% H3PO4 and mounted on vacuum manifold) with disconnected vacuum source. After spotting all samples, vacuum is connected and each well rinsed with 200 μl 0.5% H3PO4. Membranes are removed and washed 4× on shaker with 0.5% H3PO4, once with methanol. Membranes are counted after drying at ambient temperature, mounting in Packard TopCount 96-well frame, and addition of 10 μl/well of the scintillator Microscint™ (Packard).
IC50 values are calculated by logarithmic regression analysis of the percentage inhibition of each compound at 4 concentrations (usually 3- or 10-fold dilution series starting at 10 μM). In each experiment, the actual inhibition by reference compound is used for normalization of IC50 values to the basis of an average value of the reference inhibitor: Normalized IC50=measured IC50·average ref. IC50/measured ref. IC50 Example: • Reference inhibitor in experiment 0.4 μM, average 0.3 μM • Test compound in experiment 1.0 μM, normalization: 1.0·0.3/0.4=0.75 μM
For example, staurosporine or a synthetic staurosporine derivative are used as reference compounds.

T1 sequence (P08581 969-1390 limits assumed): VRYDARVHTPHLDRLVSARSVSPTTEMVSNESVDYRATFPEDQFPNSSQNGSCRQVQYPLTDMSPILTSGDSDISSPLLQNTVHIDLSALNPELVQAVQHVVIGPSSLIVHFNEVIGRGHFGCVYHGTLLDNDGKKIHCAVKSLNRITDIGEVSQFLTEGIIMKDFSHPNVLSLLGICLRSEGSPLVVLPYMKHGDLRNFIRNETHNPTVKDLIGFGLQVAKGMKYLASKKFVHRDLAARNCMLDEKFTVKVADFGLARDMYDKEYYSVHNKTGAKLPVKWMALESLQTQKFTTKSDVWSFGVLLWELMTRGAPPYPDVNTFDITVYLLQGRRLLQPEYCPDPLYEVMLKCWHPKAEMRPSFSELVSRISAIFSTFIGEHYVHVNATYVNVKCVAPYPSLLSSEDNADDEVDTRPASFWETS

| SMILES | IC50 [1] | melting point |
| --- | --- | --- |
| N/C(Cc1ccccc1-n1cnc2cnc3ccc(-c4ccccc4)cc3c21)=N/O [Example 68, N-Hydroxy-2-[2-(8-phenyl-imidazo[4,5-c]quinolin-1-yl)-phenyl]-acetamidine] |  | 253 to 254 °C |
| Fc1ccc(-n2cnc3cnc4cc(Cl)ccc4c32)cc1 [Example 15, 7-Chloro-1-(4-fluoro-phenyl)-1H-imidazo[4,5-c]quinoline] |  | 273 to 274 °C |
| CCc1ccc2ncc3ncn(-c4ccccc4Cl)c3c2c1 [Example 49, 1-(2-Chloro-phenyl)-ethyl-1H-imidazo[4,5-c]quinoline] |  | 156 to 158 °C |
| N=C(N)Cc1ccccc1-n1cnc2cnc3ccc(-c4ccccc4)cc3c21 [Example 70, 2-[2-(8-Phenyl-imidazo[4,5-c]quinolin-1-yl)-phenyl]-acetamidine] |  | 261 to 263 °C |
| [O-][n+]1cc2ncn(-c3ccccc3Cl)c2c2cc(Cl)ccc21 [Example 71, 8-Chloro-1-(2-chloro-phenyl)-1H-imidazo[4,5-c]quinoline 5-oxide] |  | 247 to 250 °C |
| N=C(N)c1ccccc1-n1cnc2cnc3ccc(-c4ccccc4)cc3c21 [Example 69, 2-(8-Phenyl-imidazo-4,5-quinolin-1-yl)-benzamidine] |  | 284 to 285 °C |
| N/C(=N\O)c1ccccc1-n1cnc2cnc3ccc(-c4ccccc4)cc3c21 [Example 67, N-Hydroxy-2-(8-phenyl-imidazo[4,5-c]quinolin-1-yl)-benzamidine] |  | 249 to 251 °C |
| NCCc1ccc(-n2cnc3cnc4ccc(Cl)cc4c32)cc1 [Example 43, 2-[4-(8-Chloro-imidazo[4,5-c]quinolin-1-yl)-phenyl]-ethylamine] |  | 140 to 141 °C |
| Clc1ccc2ncc3ncn(-c4ccccc4)c3c2c1 [Example 23, 8-Chloro-1-phenyl-1H-imidazo[4,5-c]quinoline] |  | 240 to 242 °C |
| Fc1ccc2ncc3ncn(-c4ccccc4F)c3c2c1 [Example 19, 8-Fluoro-1-(2-fluoro-phenyl)-1H-imidazo[4,5-c]quinoline] |  | 162 to 163 °C |
| Brc1ccccc1-n1cnc2cnc3ccc(-c4ccccc4)cc3c21 [Example 53, 1-(2-Bromo-phenyl)-8-Phenyl-1H-imidazo[4,5-c]quinoline] |  | 128 to 129 °C |
| NCc1cccc(-n2cnc3cnc4ccc(Cl)cc4c32)c1 [Example 42, 3-(8-Chloro-imidazo[4,5-c]quinolin-1-yl)-benzylamine] |  | 148 to 149 °C |
| O=C(Nc1nc2ccc(Cl)cc2c2c1ncn2-c1ccccc1Cl)c1ccccc1 [Example 72, N-[8-Chloro-1-(2-chloro-phenyl)-1H-imidazo[4,5-c]quinolin-4-yl]-benzamide] |  | 255 to 258 °C |
| Fc1ccc(-n2cnc3cnc4ccccc4c32)cc1 [Example 1, 1-(4-Fluoro-phenyl)-1H-imidazo[4,5-c]quinoline] |  | 161 to 162 °C |
| COc1ccc2ncc3ncn(-c4ccccc4Cl)c3c2c1 [Example 44, 1-(2-Chloro-phenyl)-8-methoxy-1H-imidazo[4,5-c]quinoline] |  | 202 to 205 °C |
| Clc1ccc2ncc3ncn(-c4ccccc4Cl)c3c2c1 [Example 25, 8-Chloro-1-(2-chloro-phenyl)-1H-imidazo[4,5-c]quinoline] | ≤ 500 nM |  |

Results, then the compound that gave them:

| IC50 [1] | melting point | SMILES |
| --- | --- | --- |
| ≤ 500 nM |  | O=c1n(Cc2ccoc2)c2cnc3ccc(Cl)cc3c2n1-c1ccccc1Cl [Example 133, 8-Chloro-1-(2-chloro-phenyl)-3-(3-furyl-methyl)-1,3-dihydro-imidazo[4,5-c]quinolin-2-one] |
|  | 177.5 °C | Cc1nc2cnc3ccc(Cl)cc3c2n1-c1ccccc1Cl [Example 136, 8-Chloro-1-(2-chloro-phenyl)-2-methyl-1H-imidazo[4,5-c]quinoline] |
| ≤ 500 nM | 242 to 244 °C | N#Cc1nc2cnc3ccc(Cl)cc3c2n1-c1ccccc1Cl [Example 84, 8-Chloro-1-(2-chloro-phenyl)-1H-imidazo[4,5-c]quinoline-2-carbonitrile] |
| ≤ 500 nM |  | N=C(N)Cc1nc2cnc3ccc(Cl)cc3c2n1-c1ccccc1Cl [Example 88, 2-[8-Chloro-1-(2-chloro-phenyl)-1H-imidazo[4,5-c]quinolin-2-yl]-acetamidine] |
|  | 265 to 267 °C | N/C(=N\O)c1nc2cnc3ccc(Cl)cc3c2n1-c1ccccc1Cl [Example 86, 8-Chloro-1-(2-chloro-phenyl)-N-hydroxy-1H-imidazo[4,5-c]quinoline-2-carboxamidine] |
|  | 194 to 200 °C | Clc1ccc2nc(Cl)c3ncn(-c4ccccc4Cl)c3c2c1 [Example 75, 4,8-Dichloro-1-(2-chloro-phenyl)-1H-imidazo[4,5-c]quinoline] |
|  | 210 to 212 °C | CNc1nc2ccc(Cl)cc2c2c1ncn2-c1ccccc1Cl [Example 76, [8-Chloro-1-(2-chloro-phenyl)-1H-imidazo[4,5-c]quinolin-4-yl]-methyl-amine] |
| 500 to 1000 nM |  | N/C(Cc1nc2cnc3ccc(Cl)cc3c2n1-c1ccccc1Cl)=N/O [Example 87, 2-[8-Chloro-1-(2-chloro-phenyl)-1H-imidazo[4,5-c]quinolin-2-yl]-N-hydroxy-acetamidine] |
|  | 194 to 195 °C | NC(=O)c1nc2cnc3ccc(Cl)cc3c2n1-c1ccccc1Cl [Example 83, 8-Chloro-1-(2-chloro-phenyl)-1H-imidazo[4,5-c]quinoline-2-carboxylic acid amide] |
| 1000 to 2000 nM |  | O=c1n(-c2cccc(Cl)c2)c2cnc3ccc(Br)cc3c2n1-c1ccccc1Cl [Example 102, 8-Bromo-1-(2-chloro-phenyl)-3-(3-chloro-phenyl)-1,3-dihydro-imidazo[4,5-c]quinolin-2-one] |
| 500 to 1000 nM |  | O=c1[nH]c2cnc3ccc(Cl)cc3c2n1-c1ccccc1Cl [Example 92, 8-Chloro-1-(2-chloro-phenyl)-1,3-dihydro-imidazo[4,5-c]quinolin-2-one] |
|  | 114 °C | N/C(Cc1nc2cnc3ccc(Cl)cc3c2n1-c1ccccc1Cl)=N/O (as salt: sodium) [Example 87, 2-[8-Chloro-1-(2-chloro-phenyl)-1H-imidazo[4,5-c]quinolin-2-yl]-N-hydroxy-acetamidine] |
|  | 248 to 250 °C | N#Cc1nc2ccc(Cl)cc2c2c1ncn2-c1ccccc1Cl [Example 74, 8-Chloro-1-(2-chloro-phenyl)-1H-imidazo[4,5-c]quinoline-4-carbonitrile] |
|  | 262 to 263 °C | Nc1nc2ccc(Cl)cc2c2c1ncn2-c1ccccc1Cl [Example 73, 8-Chloro-1-(2-chloro-phenyl)-1H-imidazo[4,5c]-quinolin-4-ylamine] |
|  | 183 to 192 °C | Clc1ccc2ncc3nc(Br)n(-c4ccccc4Cl)c3c2c1 [Example 82, 2-Bromo-8-chloro-1-(2-chloro-phenyl)-1H-imidazo[4,5-c]quinoline] |
